Data as given in article PMC9225715, “Development of PD3 and PD3-B for PDEδ inhibition to modulate KRAS activity” (Journal of Enzyme Inhibition and Medicinal Chemistry, 2022).

Biological target: T1, PDEδ (Homo sapiens, UniProt O43924)
T1 construct: made in house; host or cells: E. coli BL21(DE3)
Test: Affinity pull-down experiment with bacterial lysate overexpressing PDEδ
Format: binding
Details: 100 µM PD3-B on NeutrAvidin resin, bacterial lysate 150 µg, DMSO control
Experimental: We subsequently investigated whether PD3-B (5) specifically identifies PDEδ in the complex proteome of bacterial lysate using an affinity pull-down experiment (Figure 5). 100 µM PD3-B (5) was initially incubated with NeutrAvidin resin before incubation with bacterial lysate (150 µg) overexpressing PDEδ. For elution of the bound proteins, an elution buffer (2% SDS in PBS) was added to the resin and gently eluted at room temperature due to the noncovalent interaction between PD3-B (5) and the target protein PDEδ. The eluted samples were subjected to SDS–PAGE (18% polyacrylamide gel), and then the gels were stained with colloidal Coomassie brilliant blue solution to visualise the bound proteins. DMSO was used as a negative control. […] In addition, the intensity of the PDEδ band increased depending on the concentration of PD3-B (5) (Figure 5(B)).
Figure 5. Affinity pull-down assay of bacterial lysate (PDEδ overexpressed) with PD3-B. NeutrAvidin resin was incubated with PD3-B (100 μM) followed by bacterial lysate (150 μg) in PBS buffer. Then, bound proteins were eluted by adding elution buffer (2% SDS in PBS) at room temperature. The eluted samples were subjected to SDS–PAGE (18% polyacrylamide gel). The gels were stained with colloidal Coomassie brilliant blue solution. (A) Colloidal CBB staining of SDS–PAGE gel. Lys: bacterial lysate, FT: flow through in step 1. […]

T1 sequence (O43924 whole entry): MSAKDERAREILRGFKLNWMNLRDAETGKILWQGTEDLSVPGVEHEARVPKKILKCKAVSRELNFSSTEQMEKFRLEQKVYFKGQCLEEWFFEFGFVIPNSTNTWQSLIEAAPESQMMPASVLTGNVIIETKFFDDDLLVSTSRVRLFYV

SMILES: Cc1ccc(-c2nc3ccccc3c3c(-c4cn(CCOCCOCCOCCNC(=O)CCCC[C@H]5SC[C@@H]6NC(=O)N[C@@H]65)nn4)c4ccccn4c23)cc1 [PD3-B, 5-((3aS,4R,6aR)-2-oxohexahydro-1H-thieno[3,4-d]imidazol-4-yl)-N-(2–(2–(2-(2-(4–(6-(p-tolyl)indolizino[3,2-c]quinolin-12-yl)-1H-1,2,3-triazol-1-yl)ethoxy)ethoxy)ethoxy)ethyl)pentanamide]
- Pull down of PDEδ: PDEδ (20 kDa) was only detected in PD3-B (5)
